In patent US4226610A, “Herbicidal compounds, preparation thereof and herbicides containing the same” (Meiji Selka Kaisha, Ltd., priority 1978, dated 1980):
Structures can show the parent of a compound that is named as a salt.

What was measured:
lace shrub = experiment: Experiment 3 foliar application to naturally growing shrubs; type: in vivo, Stephanandra incisa Zabel; details: after 3 months
Excerpt: (§1) The detail of the assessment made in the following Experiments of the invention was as follows:
(§2) Four months after treatment, evaluation was made for inhibition of reproduction expressed in terms of symbols ranging from (-) to (+++) where (-) means no reproduction, namely complete suppression of reproduction, (±) remarkable suppression of reproduction; (+) considerable suppression of reproduction; (++) medium supprestion of reproduction; and (+++) no suppression of reproduction.
(§3) The compounds of the invention and other compounds listed in Table 5. were diluted to prescribed concentrations and sprayed onto naturally growing shrubs by foliar application in an amount of 150 liter per 10 are.
(§4) 0.1% of octylphenyl polyoxyethanol was added as the surfactant. The killing index (0, no effect; 5, death) after 1 month and 3 months, and the reproduction-inhibiting effect (-, no reproduction; +++, maximum reproduction) after 3 months were determined.

eulalia = experiment: Experiment 2 foliar application in Japanese cypress afforested land; type: in vivo, Miscanthus sinensis Andress.; set-up: key: 0 = no effect, 5 = death; details: 0.125%; after 3 months
Description: as §1
(§5) The compounds of the invention and other compounds listed in Table 4. were diluted to prescribed concentrations and sprayed to shrubs by foliar application in a Japanese cypress afforested land in an amount of 150 liter per 10 are.
(§6) After 30 days and 3 months, the killing index (0, no effect; 5, death) was determined.
(§7) The heights of plants were 50-70 cm. for Japanese cypress, about 50 cm. for chestnut, 50-90 cm. for miyakozasa, about 100 cm. for eulalia and 70-100 cm. for kumaichigo, respectively.

Japanese bush cranberry = experiment: Experiment 3 foliar application to naturally growing shrubs; type: in vivo, Viburnum dilatatum Thunb.; details: after 3 months
Excerpt: as §1, §2, §3, §4

Japanese prickly ash = experiment: as above; type: in vivo, Xanthoxylum piperitum DC.; details: after 3 months
Excerpt: as §1, §2, §3, §4

oak = experiment: as above; type: in vivo, Quercus serrata Thunb; details: after 3 months
Excerpt: as §1, §2, §3, §4

yabugarashi = experiment: Experiment 1 foliar application to naturally growing weeds; type: in vivo, Cayratia japonica Houtt.; details: 4 months
Excerpt: as §1, §2
(§8) The compounds of the invention and other compounds for comparison listed in Table 3 were diluted to prescribed concentrations and sprayed to naturally growing weeds by foliar application in an amount of 150 liter per 10 are.
(§9) 0.1% of octylphenyl polyoxyethanol was added as a surfactant.
(§10) The killing index (0, no effect, 5, death) after 21 days, and the reproduction-inhibiting effect (-, no reproduction; +++, maximum reproduction) after 2 months (manna grass and cockspar grass) and 4 months (other weeds) were determined.

chigaya = experiment: as above; type: in vivo, Imperata cylindrica Beauv.; details: for Reproduction-inhibiting effect: 4 months
Excerpt: as §1, §2, §8, §9, §10

manna grass = experiment: as above; type: in vivo, Digitaria adsceudes Henr.; details: 2 months
Excerpt: as §1, §2, §8, §9, §10

hedge bindweed = experiment: as above; type: in vivo, Calystegis hederacea Wall.; details: 4 months
Excerpt: as §1, §2, §8, §9, §10

warunasubi = experiment: as above; type: in vivo, Solanum carolinensis L.; details: 4 months
Excerpt: as §1, §2, §8, §9, §10

kumaichigo = experiment: Experiment 2 foliar application in Japanese cypress afforested land; type: in vivo, Rubus crataegifolius Bunge; details: 0.125%; after 3 months
Description: as §1, §5, §6, §7

white clover = experiment: Experiment 1 foliar application to naturally growing weeds; type: in vivo, Trifolium repens L.; details: 4 months
Excerpt: as §1, §2, §8, §9, §10

azumanezasa = experiment: as above; type: in vivo, Pleioblastus Chino Makino; details: 4 months
Excerpt: as §1, §2, §8, §9, §10

purple nutsedge = experiment: as above; type: in vivo, Cyperus rotundus L.; details: 4 months
Excerpt: as §1, §2, §8, §9, §10

cockspar grass = experiment: as above; type: in vivo, Echinochloa Crusgalli P. Beauv.; details: 2 months
Excerpt: as §1, §2, §8, §9, §10

yamazakura = experiment: Experiment 3 foliar application to naturally growing shrubs; type: in vivo, Prunus donarium Sieb. var. spontanae Makino; details: after 3 months
Excerpt: as §1, §2, §3, §4

torch azalea = experiment: as above; type: in vivo, Rhododendoron Kaempferi Planch.; details: after 3 months
Excerpt: as §1, §2, §3, §4

kiichigo = experiment: as above; type: in vivo, Rubus palmatsu Thunb. forma coptophyllus Makino; details: after 3 months
Excerpt: as §1, §2, §3, §4

Structure (SMILES): CP(=O)(O)CCC(N)C(=O)O (racemic) [DL-2-Amino-4-methylphosphinobutanoic acid monodiethanolammon] [DL-2-Amino-4-methylphosphinobutanoic acid monodiethanolammonium salt]
- Reproduction-inhibiting (lace shrub; 0.05%): +++
- Reproduction-inhibiting (lace shrub; 0.1%): ++
- Reproduction-inhibiting (lace shrub; 0.2%): -
- Killing index (eulalia): 1.5
- Reproduction-inhibiting (Japanese bush cranberry; 0.05%): +++
- Reproduction-inhibiting (Japanese bush cranberry; 0.1%): ++
- Reproduction-inhibiting (Japanese bush cranberry; 0.2%): ++
- Reproduction-inhibiting (Japanese prickly ash; 0.05%): +++
- Reproduction-inhibiting (Japanese prickly ash; 0.1%): ++
- Reproduction-inhibiting (Japanese prickly ash; 0.2%): -
- Reproduction-inhibiting (oak; 0.05%): +++
- Reproduction-inhibiting (oak; 0.1%): ++
- Reproduction-inhibiting (oak; 0.2%): -
- Reproduction-inhibiting effect (yabugarashi; 0.05%): +++
- Reproduction-inhibiting effect (yabugarashi; 0.1%): +++
- Reproduction-inhibiting effect (yabugarashi; 0.2%): ++
- Reproduction-inhibiting effect (chigaya; 0.05%): +++
- Killing index of Upperground parts (chigaya; 0.05%, 21 days): 2.5
- Reproduction-inhibiting effect (chigaya; 0.1%): ++
- Reproduction-inhibiting effect (chigaya; 0.2%): -
- Reproduction-inhibiting effect (manna grass; 0.05%): +++
- Reproduction-inhibiting effect (manna grass; 0.1%): ++
- Reproduction-inhibiting effect (manna grass; 0.2%): -
- Reproduction-inhibiting effect (hedge bindweed; 0.05%): +++
- Reproduction-inhibiting effect (hedge bindweed; 0.1%): +++
- Reproduction-inhibiting effect (hedge bindweed; 0.2%): +++
- Reproduction-inhibiting effect (warunasubi; 0.05%): +++
- Reproduction-inhibiting effect (warunasubi; 0.1%): +++
- Reproduction-inhibiting effect (warunasubi; 0.2%): +
- Killing index (kumaichigo): 1.5
- Reproduction-inhibiting effect (white clover; 0.05%): +++
- Reproduction-inhibiting effect (white clover; 0.1%): +++
- Reproduction-inhibiting effect (white clover; 0.2%): -
- Reproduction-inhibiting effect (azumanezasa; 0.05%): +++
- Reproduction-inhibiting effect (azumanezasa; 0.1%): +
- Reproduction-inhibiting effect (azumanezasa; 0.2%): -
- Reproduction-inhibiting effect (purple nutsedge; 0.05%): +++
- Reproduction-inhibiting effect (purple nutsedge; 0.1%): +++
- Reproduction-inhibiting effect (purple nutsedge; 0.2%): +
- Reproduction-inhibiting effect (cockspar grass; 0.05%): +++
- Reproduction-inhibiting effect (cockspar grass; 0.1%): ++
- Reproduction-inhibiting effect (cockspar grass; 0.2%): -
- Reproduction-inhibiting (yamazakura; 0.05%): +++
- Reproduction-inhibiting (yamazakura; 0.1%): ++
- Reproduction-inhibiting (yamazakura; 0.2%): -
- Reproduction-inhibiting (torch azalea; 0.05%): +++
- Reproduction-inhibiting (torch azalea; 0.1%): ++
- Reproduction-inhibiting (torch azalea; 0.2%): -
- Reproduction-inhibiting (kiichigo; 0.05%): +++
- Reproduction-inhibiting (kiichigo; 0.1%): ++
- Reproduction-inhibiting (kiichigo; 0.2%): -
